Data as given in PMC11747885, “Potent inhibitors of the human RNA ligase Rlig1 highlights its role in RNA integrity maintenance under oxidative cellular stress” (Chemical Science, 2025).
Where “and” joins values, the source holds several entries; their conditions need not be identical. Identical values can stand only once. Like-named read-outs stand apart in the source and are kept apart here.

Tests used:
Rlig1-AMP = biological target: T1, Rlig1-AMP (Homo sapiens, UniProt Q8N999); assay: FRET-based high-throughput screening of inhibitors for Rlig1-AMP; type: biochemical; details: HTS hits; for 1-D Distance: difference of raw data w/o and w enzyme; for Raw data [w Enyzm]: with enzyme; for Raw data [w/o Enzym]: without enzyme
T1 construct: made in house; host or cells: E. coli BL21 (DE3), pET15b-Rlig1

BCL-2 = biological target: BCL-2; parameters: method as in MedChemExpress; details: ref MedChemExpress; cited from earlier work
GLP = test system: GLP; parameters: method as in MedChemExpress; details: ref MedChemExpress; cited from earlier work
G9a = test system: G9a; parameters: method as in MedChemExpress; details: ref MedChemExpress; cited from earlier work
[1] = ref MedChemExpress, cited from earlier work
NMDA receptor = biological target: NMDA receptor; parameters: method as in MedChemExpress; details: ref MedChemExpress; cited from earlier work
B-Raf kinase = biological target: B-Raf kinase; parameters: method as in MedChemExpress; details: ref MedChemExpress; cited from earlier work
Pol II = test system: Pol II; parameters: method as in MedChemExpress; details: ref MedChemExpress; cited from earlier work
MIA PaCa-2 cells = test system: MIA PaCa-2 cells; parameters: method as in MedChemExpress; details: ref MedChemExpress, read-out: IC50, Pol I-mediated rRNA synthesis; cited from earlier work
A375 = test system: A375; parameters: method as in MedChemExpress; details: ref MedChemExpress, read-out: IC50, Pol I-mediated rRNA synthesis; cited from earlier work
HCT-116 = test system: HCT-116; parameters: method as in MedChemExpress; details: ref MedChemExpress, read-out: IC50, Pol I-mediated rRNA synthesis; cited from earlier work
ALK2 = test system: ALK2; parameters: method as in MedChemExpress; details: ref MedChemExpress; cited from earlier work
[2] = test system: transcription factor PU.1; parameters: method as in MedChemExpress; details: ref MedChemExpress; cited from earlier work
Tyk2 = test system: Tyk2; parameters: method as in MedChemExpress; details: ref MedChemExpress; cited from earlier work
JAK1 = test system: JAK1; parameters: method as in MedChemExpress; details: ref MedChemExpress; cited from earlier work
JAK2 = test system: JAK2; parameters: method as in MedChemExpress; details: ref MedChemExpress; cited from earlier work
JAK3 = test system: JAK3; parameters: method as in MedChemExpress; details: ref MedChemExpress; cited from earlier work
PU.1 = test system: PU.1; parameters: method as in MedChemExpress; details: in vitro; ref MedChemExpress; read-out: IC50, PU.1 binding; cited from earlier work
λB = biological target: λB; parameters: method as in MedChemExpress; details: in vitro; ref MedChemExpress; read-out: KD, DB1976-λB affinity; cited from earlier work
tau protein = biological target: tau protein; parameters: method as in MedChemExpress; details: tau protein aggregation; ref MedChemExpress; cited from earlier work
TrKA = test system: TrKA; parameters: method as in MedChemExpress; details: ref MedChemExpress; read-out: IC50, TrKA phosphorylation; cited from earlier work
ErbB2 = test system: ErbB2; parameters: method as in MedChemExpress; details: ref MedChemExpress, cited from earlier work
chymotrypsin = biological target: chymotrypsin; parameters: method as in MedChemExpress; details: ref MedChemExpress; cited from earlier work
[3] = normalised value of 1-D Distance

T1 sequence (Q8N999 whole entry): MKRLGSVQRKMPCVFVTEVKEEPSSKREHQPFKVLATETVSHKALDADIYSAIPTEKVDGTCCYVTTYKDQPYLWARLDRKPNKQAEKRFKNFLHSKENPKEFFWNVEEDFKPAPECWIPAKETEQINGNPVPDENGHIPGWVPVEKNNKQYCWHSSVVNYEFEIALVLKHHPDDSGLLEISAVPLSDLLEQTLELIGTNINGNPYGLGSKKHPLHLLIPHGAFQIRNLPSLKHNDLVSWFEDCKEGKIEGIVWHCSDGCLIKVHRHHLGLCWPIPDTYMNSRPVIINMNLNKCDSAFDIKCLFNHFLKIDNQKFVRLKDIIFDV

Row | Molecule | 1-D Distance (Rlig1-AMP) | 1-D Distance.npi (Rlig1-AMP; normalized value (npi)) | Raw data [w Enyzm] (Rlig1-AMP) | Raw data [w/o Enzym] (Rlig1-AMP) | other results
1 | COC1=CC(c2cc3ccccc3[nH]2)=N/C1=C\c1[nH]c(C)cc1C.CS(=O)(=O)O [Obatoclax (Mesylate)] | 702 | 94.4219 | 1010 | 1712 | Ki (BCL-2): 0.22 µM
2 | COc1cc2c(NC3CCN(C)CC3)cc(-c3ccc(C)o3)nc2cc1OCCCN1CCCC1 [CM-272] | 449 | 99.0872 | 6004 | 6453 | IC50 (GLP): 0.002 µM; IC50 (G9a): […]
3 | N[C@@H](Cc1cc(CP(=O)(O)O)cc(-c2ccccc2Cl)c1)C(=O)O [SDZ 220-581] | 1679 | 76.8207 | 24871 | 26550 | solubility ([1]; DMSO): 8.57 mg/mL and 23.18 mM; pKi (NMDA receptor): SDZ 220-581 is an orally active, potent, competitive NMDA receptor antagonist with pKi value of 7.7[1].
4 | CN(C)Cc1ccc(-c2cnn3c(-c4cccc(NC(=O)c5cccc(C(F)(F)F)c5)c4)ccnc23)cc1 [B-Raf IN 1] | 563 | 95.4397 | 7195 | 7758 | IC50 (B-Raf kinase): […]
5 | Cc1cnc(CNC(=O)c2c(=O)c3ccc(N4CCCN(C)CC4)nc3n3c2sc2ccccc23)cn1.Cl.Cl [CX-5461 dihydrochloride] | 1694 |  | 7215 | 8909 | IC50 (Pol II): ≥ 25 µM; IC50 (MIA PaCa-2 cells): 0.054 µM; IC50 (A375): 0.113 µM; 1-D Distance.npi (Rlig1-AMP; [3]): 72.2021; IC50 (HCT-116): 0.142 µM
6 | c1cc(-c2cnn3cc(-c4ccc(N5CCNCC5)cc4)cnc23)c2cccnc2c1 [LDN-212854] | 1181 | 85.2649 | 7408 | 8589 | solubility ([1]; DMSO): ≥ 30 mg/mL and ≥ 73.80 mM; IC50 (ALK2): 0.0013 µM
7 | CC(C)N=C(N)c1ccc2nc(-c3ccc(OCc4cccc(COc5ccc(-c6nc7ccc(C(N)=NC(C)C)cc7[nH]6)cc5)c4F)cc3)[nH]c2c1 [DB2313] | 699 |  | 5551 | 4852 | PU.1 inhibitor with an apoptosis of [2]: DB2313 is a potent transcription factor PU.1 inhibitor with an apoptosis of 14 nM. DB2313 disrupts the interaction of PU.1 with target gene promoters. DB2313 induces apoptosis of acute myeloid leukemia (AML) cells, and has anticancer effects[1].; 1-D Distance.npi (Rlig1-AMP; [3]): 88.7864
8 | NC(=O)c1cnc2[nH]ccc2c1N[C@@H]1[C@@H]2CC3C[C@H]1C[C@@](O)(C3)C2 [Peficitinib] | 1954 |  | 8816 | 10770 | IC50 (Tyk2): 0.0048 µM; IC50 (JAK1): 0.0039 µM; IC50 (JAK2): 0.005 µM; IC50 (JAK3): […]
9 | Cl.Cl.N=C(N)c1ccc2nc(-c3ccc(-c4nc5ccc(C(=N)N)cc5[nH]4)[se]3)[nH]c2c1 [DB1976 (dihydrochloride)] | 102 | 105.279 | 4805 | 4703 | solubility ([1]; DMSO): 62.5 mg/mL and 120.13 mM; solubility ([1]; H2O): 18.33 mg/mL and 35.23 mM; IC50 (PU.1): 0.01 µM; Kd (λB): 0.012 µM
10 | CN(C)c1ccc2c(c1)Sc1cc(N(C)C)ccc1N2.CS(=O)(=O)O.CS(=O)(=O)O [Leucomethylene blue (mesylate)] | 1844 | 72.1191 | 4383 | 6227 | Ki (tau protein): 0.12 µM
11 | CC(C)(C)c1cc(/C=C(\C#N)C(N)=S)cc(C(C)(C)C)c1O [Tyrphostin AG 879] | 1883 |  | 2204 | 4087 | IC50 (TrKA): 10 µM; IC50 (ErbB2; ErbB2): 1 µM; selectivity to ErbB2 than EGFR (ErbB2; ErbB2 vs EGFR): ≥ 500 fold
12 | Aprotinin | 1367 |  | 37995 | 39362 | 1-D Distance.npi (Rlig1-AMP; [3]): 82.3934; Ki (chymotrypsin): 0.009 µM
